Test results from US20140357512A1, “HISTONE DEACETYLASE (HDAC) BIOMARKERS IN MULTIPLE MYELOMA” (priority 2013, published 2014).

Test system: human myeloma cell line MM.1S
Assay: SILAC acetylated-lysine peptide profiling, HDAC inhibitor vs DMSO (light/heavy ratio)
Assay type: cell-based
Description: An embodiment of the invention comprises utilizing the SILAC method in order to quantitate changes in protein expression between two or more populations of cells. The SILAC method is a technique based on mass spectrometry that detects differences in protein abundance among samples using non-radioactive isotopic labeling. The SILAC method is known in the art, and described in detail in Ong et al., “Stable Isotope Labeling by Amino Acids in Cell Culture, SILAC, as a Simple and Accurate Approach to Expression Proteomics”, Molecular & Cellular Proteomics, vol. 1, pp. 376-386 (2002), which is incorporated herein by reference in its entirety.
Briefly, the SILAC method involves growing two populations of cells in cell culture. The first population of cells is grown in growth media containing normal amino acids (“normal media”). The second population of cells is grown in media lacking a standard essential amino acid (such as lysine), but is then supplemented with a non-radioactive, isotopically labeled form of that essential amino acid (such as lysine labeled with ^13C atoms, rather than normal ^12C atoms), which is called “heavy media”. When the two populations of cells are each growing in the medium, they incorporate the amino acids into all of their proteins. The growth of cells maintained in the heavy media is no different from that in normal media. All peptides containing the heavy amino acids are heavier than their normal counterparts. The cells from each of the two populations of cells are lysed. The lysates from each of the two cell populations are then combined. The combined cell lysates are then analyzed by mass spectrometry. Pairs of chemically identical peptides of different stable isotope composition can be differentiated in a mass spectrometer due to their difference in mass. The ratio of peak intensities in the mass spectrum for such peptide pairs reflects the abundance ratio for the two proteins.
This example describes SILAC studies that were performed to compare the effects of three different HDAC inhibitors (Compound A, Compound B, and tubastatin A) to a control on a human multiple myeloma cell line. The HDAC inhibitors were also compared amongst themselves to determine differences in their effects.
A human myeloma cell line MM.1S was grown using either ^12C (light) or ^13C (heavy) lysine containing culture medium. The “heavy” cells were treated with DMSO as the control, and the “light” cells were treated with a single HDAC inhibitor at 37° C. for 6 hours. The heavy and light cells were lysed, and the lysates were mixed in 1:1 ratio and digested with the protease trypsin. The acetylated lysine containing peptides (due to the action of the HDAC inhibitor) in the digested peptide pool were captured by a non-specific anti-acetylated lysine antibody cocktail (the antibodies identify both light and heavy acetylated peptides), and subjected to mass spectrometry analysis in order to identify thousands of individual peptides.
Thousands of peptides were identified in pairs (^12C and ^13C) due to their known mass differences. The amino acid sequence and quantitative ratio (Light/Heavy) of a given peptide in two differentially treated cell lysates were then determined and annotated with their possible protein (gene) sources.
As stated above, three HDAC inhibitors (Compound A, Compound B, and Tubastatin A) were used. Thus, the SILAC method was performed three times, with a different HDAC inhibitor compared to a control each time. Accordingly, there are three pairs of quantitative data in the table below, i.e., Compound A:DMSO, Compound B:DMSO, and Tubastatin A:DMSO. A cut-off of 1.30 fold of change (increase or decrease) was then used to determine “changed” or “+” in the table, and any peptides with a fold of change less than 1.3 fold were determined to be “unchanged” or “0” in the table. Those peptides that were not identified were marked as “NA” in the table. […]

CN1CCc2c(c3ccccc3n2Cc2ccc(C(=O)NO)cc2)C1 [Tub A]
light to heavy ratio (L/H ratio) of acetylated peptide LLLFK(ac)TFSR (SEQ ID NO: 514) (Heterogeneous nuclear ribonucleoprotein U-like protein 2 [553], gene HNRNPUL2, inhibitor:DMSO): 0.00 log 2
light to heavy ratio (L/H ratio), log 2 scale, acetylated peptide GSK(ac)K(ac)AINK (SEQ ID NO: 792) (Histone H2B type 1-M [16:17], gene HIST1H2BM, drug:DMSO): 0.00
light to heavy ratio (L/H ratio), log 2 scale, acetylated peptide K(ac)AINK(ac)AQK (SEQ ID NO: 793) (Histone H2B type 1-M [17:21], gene HIST1H2BM, drug:DMSO): 0.00
light to heavy ratio (L/H ratio) of acetylated peptide PEPAK(ac)SAPAPK(ac)K (SEQ ID NO: 309) (Histone H2B type 2-E [6:12], HIST2H2BE, drug:DMSO): 0.58 log 2
light to heavy ratio (L/H ratio) of acetylated peptide AVTK(ac)AQK(ac)K (SEQ ID NO: 560) (Histone H2B type 2-E [21:24], gene HIST2H2BE, inhibitor:DMSO): 0.00 log 2
light to heavy ratio (L/H ratio) of acetylated peptide K(ac)STGGK(ac)APR (SEQ ID NO: 310) (Histone H3.2 [10:15], HIST2H3D, HIST2H3A, HIST2H3C, drug:DMSO): 0.46 log 2
light to heavy ratio (L/H ratio), log 2 scale, acetylated peptide K(ac)QLATK(ac)AAR (SEQ ID NO: 796) (Histone H3.2 [19:24], gene HIST2H3D, HIST2H3A, HIST2H3C, drug:DMSO): 0.00
light to heavy ratio (L/H ratio) of acetylated peptide GK(ac)GGK(ac)GLGK (SEQ ID NO: 311) (Histone H4 [6:9], HIST2H4B, HIST1H4C and other H4 genes, drug:DMSO): 0.49 log 2
light to heavy ratio (L/H ratio) of acetylated peptide GLGK(ac)GGAK(ac)R (SEQ ID NO: 312) (Histone H4 [13:17], HIST2H4B, HIST1H4C and other H4 genes, drug:DMSO): 0.49 log 2
light to heavy ratio (L/H ratio) of acetylated peptide GLGK(ac)GGAKR (SEQ ID NO: 313) (Histone H4 [13], HIST2H4B, HIST1H4C and other H4 genes, drug:DMSO): −0.62 log 2
light to heavy ratio (L/H ratio) of acetylated peptide DGLQNEK(ac)NIVSTPVK (SEQ ID NO: 268) (Hydroxymethylglutaryl-CoA lyase mitochondrial [48], HMGCL, drug:DMSO): 0.40 log 2
light to heavy ratio (L/H ratio) of acetylated peptide K(ac)NINCSIEESFQR (SEQ ID NO: 594) (Hydroxymethylglutaryl-CoA lyase mitochondrial [137], gene HMGCL, inhibitor:DMSO): 0.00 log 2
light to heavy ratio (L/H ratio) of acetylated peptide, log 2 scale (IFVGGLSPDTPEEK(ac)IR (SEQ ID NO: 166), Isoform 1 of Heterogeneous nuclear ribonucleoprotein D0 [197], HNRNPD): −0.78
light to heavy ratio (L/H ratio) of acetylated peptide, log 2 scale (IGFGSFVDK(ac)TVLPFVSTVPSK (SEQ ID NO: 180), Isoform Long of Integrin beta-7 [199], ITGB7): −0.40
light to heavy ratio (L/H ratio) of acetylated peptide, log 2 scale (IGIEIIK(ac)R (SEQ ID NO: 174), 60 kDa heat shock protein mitochondrial [469], HSPD1): −0.42
L/H ratio of acetylated peptide YAASSYLSLTPEQWK(ac)SHR (SEQ ID NO: 56) (IGLV2-14, IGLC2 [208], log 2 scale, drug vs DMSO): −0.63
light to heavy ratio (L/H ratio) of acetylated peptide, log 2 scale (IMK(ac)DLDQCR (SEQ ID NO: 217), Protein S100-A10 [57], S100A10): 0.72
light to heavy ratio (L/H ratio) of acetylated peptide, log 2 scale (IQDK(ac)EGIPPDQQR (SEQ ID NO: 212), Ubiquitin-40S ribosomal protein S27a [33], RPS27A): −0.50
light to heavy ratio (L/H ratio) of acetylated peptide, log 2 scale (ISK(ac)EVLAGR (SEQ ID NO: 167), Isoform Short of Heterogeneous nuclear ribonucleoprotein U [417], HNRNPU): −0.75
L/H ratio of acetylated peptide (IVQK(ac)HPHTGDTKEEK (SEQ ID NO: 489), Death-associated protein 1 [29], DAP): 0.00 log 2
light to heavy ratio (L/H ratio) of acetylated peptide, log 2 scale (IYFTDSSSK(ac)WQR (SEQ ID NO: 138), Isoform 1 of Adipocyte plasma membrane-associated protein [220], C20orf3): −0.59
light to heavy ratio (L/H ratio), log 2 scale, acetylated peptide ADLIK(ac)QYGR (SEQ ID NO: 798) (Inactive hydroxysteroid dehydrogenase-like protein 1 [64], gene HSDL1, drug:DMSO): 0.00
light to heavy ratio (L/H ratio) of acetylated peptide HAHGDQYK(ac)ATDFVADR (SEQ ID NO: 574) (Isocitrate dehydrogenase [NADP] mitochondrial [180], gene IDH2, inhibitor:DMSO): 0.00 log 2
light to heavy ratio (L/H ratio) of acetylated peptide AGTFK(ac)MVFTPK (SEQ ID NO: 606) (Isocitrate dehydrogenase [NADP] mitochondrial [193], gene IDH2, inhibitor:DMSO): 0.00 log 2
light to heavy ratio (L/H ratio) of acetylated peptide VVDSMDALDK(ac)VVQER (SEQ ID NO: 318) (Isoform 1 of 39S ribosomal protein L47 mitochondrial [144], MRPL47, drug:DMSO): 0.45 log 2
light to heavy ratio (L/H ratio) of acetylated peptide ATVPK(ac)TEIR (SEQ ID NO: 272) (Isoform 1 of 40S ribosomal protein S24 [37], RPS24, drug:DMSO): −0.44 log 2
light to heavy ratio (L/H ratio) of acetylated peptide AEEILEK(ac)GLK (SEQ ID NO: 547) (Isoform 1 of 60S ribosomal protein L11 [85], gene RPL11, inhibitor:DMSO): 0.00 log 2
light to heavy ratio (L/H ratio) of acetylated peptide ISK(ac)EEAMR (SEQ ID NO: 299) (Isoform 1 of 60S ribosomal protein L11 [159], RPL11, drug:DMSO): −0.48 log 2
light to heavy ratio (L/H ratio) of acetylated peptide AGLVDDFEK(ac)K (SEQ ID NO: 301) (Isoform 1 of ATP synthase subunit d mitochondrial [72], ATP5H, drug:DMSO): 0.66 log 2
light to heavy ratio (L/H ratio) of acetylated peptide VPVPEDK(ac)YTAQVDAEEKEDVK (SEQ ID NO: 290) (Isoform 1 of ATP synthase subunit d mitochondrial [85], ATP5H, drug:DMSO): 0.50 log 2
light to heavy ratio (L/H ratio) of acetylated peptide TLK(ac)ALEYVFK (SEQ ID NO: 516) (Isoform 1 of Dedicator of cytokinesis protein 2 [738], gene DOCK2, inhibitor:DMSO): 0.00 log 2
light to heavy ratio (L/H ratio), log 2 scale, acetylated peptide ILSK(ac)LSEETK (SEQ ID NO: 759) (Isoform 1 of E3 UFM1-protein ligase 1 [614], gene UFL1, drug:DMSO): 0.00
light to heavy ratio (L/H ratio) of acetylated peptide ELEK(ac)VCNPIITK (SEQ ID NO: 612) (Isoform 1 of Heat shock cognate 71 kDa protein [601], gene HSPA8, inhibitor:DMSO): 0.00 log 2
light to heavy ratio (L/H ratio) of acetylated peptide TLVLSDK(ac)HSPQK (SEQ ID NO: 523) (Isoform 1 of Histone-lysine N-methyltransferase MLL3 [2809], gene MLL3, inhibitor:DMSO): 0.00 log 2
light to heavy ratio (L/H ratio) of acetylated peptide VK(ac)NELFK (SEQ ID NO: 565) (Isoform 1 of Hydroxyacyl-coenzyme A dehydrogenase mitochondrial [127], gene HADH, inhibitor:DMSO): 0.00 log 2
light to heavy ratio (L/H ratio) of acetylated peptide LVAENK(ac)FGK (SEQ ID NO: 296) (Isoform 1 of Hydroxyacyl-coenzyme A dehydrogenase mitochondrial [301], HADH, drug:DMSO): −0.43 log 2
light to heavy ratio (L/H ratio) of acetylated peptide K(ac)SADTLWGIQK (SEQ ID NO: 316) (Isoform 1 of L-lactate dehydrogenase A chain [318], LDHA, drug:DMSO): 1.00 log 2
light to heavy ratio (L/H ratio) of acetylated peptide FYK(ac)DVLEVGELAK (SEQ ID NO: 596) (Isoform 1 of N-alpha-acetyltransferase 50 NatE catalytic subunit [37], gene NAA50, inhibitor:DMSO): 0.00 log 2
light to heavy ratio (L/H ratio), log 2 scale, acetylated peptide NLQEAEEWYK(ac)SK (SEQ ID NO: 767) (Isoform 1 of Peripherin [288], gene PRPH, drug:DMSO): 0.00
light to heavy ratio (L/H ratio) of acetylated peptide LMK(ac)YLLEQLK (SEQ ID NO: 585) (Isoform 1 of Protein MB21D1 [414], gene MB21D1, inhibitor:DMSO): 0.00 log 2
light to heavy ratio (L/H ratio) of acetylated peptide VLSK(ac)EFHLNESGDPSSK (SEQ ID NO: 294) (Isoform 1 of Protein SET [154], SET, drug:DMSO): −1.00 log 2
light to heavy ratio (L/H ratio) of acetylated peptide GYAYVEFENPDEAEK(ac)ALK (SEQ ID NO: 349) (Isoform 1 of RNA-binding protein with serine-rich domain 1 [218], RNPS1, drug:DMSO): 0.00 log 2
light to heavy ratio (L/H ratio), log 2 scale, acetylated peptide […](ac)TDQAQDVK (SEQ ID NO: 765) (Isoform 1 of Signal recognition particle 9 kDa protein [52], gene SRP9, drug:DMSO): 0.00
light to heavy ratio (L/H ratio) of acetylated peptide LEMSYSK(ac)FK (SEQ ID NO: 304) (Isoform 1 of UDP-N-acetylglucosamine--dolichyl-phosphate N-acetylglucosaminephosphotransferase [320], DPAGT1, drug:DMSO): 0.48 log 2
